Data on nine compounds can be found in patent US20240246960A1 (adMare Therapeutics Society, priority 2021, published 2024).

The structures appear in SMILES notation.

Data set [1] in a line: Microsomal stability assay, human liver microsomes. Type of data set: in vitro ADME. Conditions: for microsomal CLint at 0.1 uM: both sexes, human, liver microsomes, pH 7.4, 0.1 mg/mL microsomes, 0.1 uM compound. The method, then: Samples were then mixed and centrifuged. Supernatants were used for HPLC-MS/MS analysis. […] Peak areas corresponding to the test compound were recorded.
On the technique in general: Liver microsomes are vesicles of endoplasmic reticulum, rich in cytochrome P450 enzymes.

Data set [2] relates to FaDu tumour xenograft. Kind of data set: In vivo clonogenic survival (CS-ER), FaDu tumour xenografts ± radiation. Conditions: Rag2M mice. Here is the method:
FaDu tumour xenograft-bearing Rag2M mice were treated with single administrations of test compounds at indicated doses±radiation as indicated, at time 0.
Mice were irradiated at 1 h post compound administration (unless otherwise indicated), with 300 KV X-rays and a 10 mA current from a Precision XRAD 300 machine (USA) with a beam-hardening filter (2 mm Al+0.25 mm Cu+0.75 mm Sn) and an adjustable site to specimen distance (SSD) at a dose of 8-10 Gy, delivered at a rate of ˜1.05 Gy/min.
Mice were terminated at times after irradiation as indicated, and tumour tissues excised. A portion of tumour approximately 300-500 mg was briefly minced using sterile scissors and placed in a pre-weighed gentleMACS C tube (Miltenyi Biotec cat #130-093-237) and weighed with combined tumour+tube mass recorded. A 5 mL aliquot of enzyme cocktail comprising of trypsin/DNase/collagenase/EDTA-Na2 in PBS (1 mg/ml trypsin+0.26 mg/ml DNase+0.21 mg/ml collagenase+2 mM EDTA-Na2) was added to the tube, which is then run on the gentleMACS Dissociator disaggregation system. Tubes were then incubated at 37° C. and continually rotated for 20 min before again running on the gentleMACS Dissociator program. Samples were then diluted with 5 ml MEM medium containing 5% FBS and filtered (Falcon cell strainer 100 μm, cat #352360). After centrifugation (1100 rpm for 6 minutes at 4° C.) supernatant was aspirated and the cells resuspended in 4 ml cold growth medium (MEM+10% FBS)+50 ul DNase (5 mg/ml DNase solution). Cell numbers were counted from the same cell solution using a hemacytometer. Appropriate dilutions (control: 10,000 cells/ml; 8Gy: 400,000 cells/ml; drug+radiation treated; 500,000 cells/ml) were made and cells then plated in triplicate: control: 100 μl and 300 μl (1000 and 3000 cells/6 cm tissue culture plate); 8Gy: 30 μl, 105 μl and 350 μl (12000, 42000 cells/6 cm plates and 140000 cells/10 cm plate); drug+8Gy: 70 μl, 300 μl, 1.2 ml (35000 and 150000 cells/6 cm plates and 600000 cells/10 cm plates—only duplicate). Plates were incubated at 37° C. (in a 5% CO2, 5% O2 and balance N2 environment) for 14 days. For a final and accurate automated live-cell counting a solution of Hoechst33342 (0.01 mg/ml)+Propidium Iodide (0.004 mg/ml) in 0.9% saline was mixed with an appropriate cell number dilution of the samples in 96 well plates (50 ul staining solution+50 ul cell suspension of 10000 cells/ml) and images are taken of the wells and cell numbers are calculated by a computer program.
After 14 days plates were removed from the incubator, rinsed with PBS and stained with cold 2 g/L Malachite green oxalate salt solution (Sigma-Aldrich, cat #M6880) for 30 minutes at room temperature. Plates were rinsed with distilled water and dried. Pictures were obtained of the plates and colonies consisting of 50 or more cells were counted using a Stuart Scientific colony counter.
All plates with colonies were analyzed except when colony numbers were so high that the edges of individual colonies could not be determined accurately. Plating efficiency (PE) of each tumour sample was calculated first: PE is a ratio of the number of colonies to the number of cells seeded (sum of all the colonies countable in all the plates of the same sample divided by the sum of cells plated in the same plates). The PE of control tumours was averaged for the calculation of surviving fraction (SF): SF is based on the number of colonies formed in drug and/or radiation treated cells relative to that of untreated control (PE of treated tumor sample divided by PE of control). All treated data points were compared separately to the average of the controls. Finally, a Clonogenic Survival Enhancement Ratio (CS-ER) was calculated: the SF of irradiated control groups were divided by the SF of treatment groups to determine treatment group-specific CS-ER values, and these were assigned scores based on defined response ranges: values >6=A, 4-6=B, <4=C.

Data set [3] concerns FaDu tumour xenograft. Nature of the data set: In vivo tumour growth delay (TGD-ER), FaDu tumour xenografts + radiation. Particulars: PO. The method, then:
FaDu tumour xenograft-bearing animals were monitored for tumour growth and once average tumour size reached approximately 100-250 mm3, animals were assigned to treatment cohorts using stratified randomization. Animals were weighted and treated with doses of test compounds at 10, 30 or 100 mg/kg PO from 1, 3 or 10 mg/mL formulations at time 0.
For BID dosing regimens, at 8 h following the first injection, animals were again administered with test compound at the same dose as their previous administration. Animals were weighed and had tumours measured using calipers three times weekly until the endpoint of maximum tumour volume, 1000 mm3, was reached and animals were euthanized. Tumour volumes were calculated according to the equation L×W^2/2 with the length (mm) being the longer axis of the tumour; in the case that no tumour was palpable, tumour volumes were recorded as 0 mm^3.
Data were calculated as tumour growth normalized to day 0 measurements, with time to tumour doubling determined. Average time to tumour doubling for each group was used to determine a Tumour Growth Delay Enhancement Ratio (TGD-ER): the time to doubling for treatment groups were divided by the time to doubling for irradiation-alone groups to determine group-specific TGD-ER values, and these were assigned scores based on defined response ranges: values >2.5=A, 1-2.5=B, <1=C.

`c1cnc(N[C@H]2CC[C@@H](Oc3nc(N4CCOCC4)cc4ncccc34)CC2)nc1` [Compound 20a, N-((1s,4s)-4-((7-Morpholino-1,6-naphthyridin-5-yl)oxy)cyclohexyl)pyrimidin-2-amine]: in data set [1], the “Microsomal Stability (human) % rem. 60 min” value is recorded as “F (% remaining = 25-50%)” and the microsomal CLint at 0.1 uM was over 116 µL/min/mg.
Turning to `O=C(N[C@H]1CC[C@@H](Oc2nc(N3CCOCC3)cc3ncccc23)CC1)c1ccncc1` [Compound 113, N-((1s,4s)-4-((7-morpholino-1,6-naphthyridin-5-yl)oxy)cyclohexyl)isonicotinamide], in data set [1], the “Microsomal Stability (human) % rem. 60 min” value is reported as “F (% remaining = 25-50%)” and the microsomal CLint at 0.1 uM is over 116 µL/min/mg. The “CS-ER Range Score” value in data set [2] (30 mpk + 8 Gy, 2 h) is “C (<4=C)”. In data set [2] (30 mpk + 8 Gy, 4 h), the “CS-ER Range Score” value is recorded as “B (4-6=B)”.
Consider `O=C(N[C@H]1CC[C@@H](Oc2nc(N3CCOCC3)cc3ncccc23)CC1)c1ccnnc1` [Compound 121, N-((1s,4s)-4-((7-morpholino-1,6-naphthyridin-5-yl)oxy)cyclohexyl)pyridazine-4-carboxamide], for which, in data set [1], the “Microsomal Stability (human) % rem. 60 min” value is given as “G (% remaining = 50-75%)” and the microsomal CLint at 0.1 uM was under 116 µL/min/mg. Besides, the “CS-ER Range Score” value in data set [2] (30 mpk + 8 Gy, 4 h) is given as “C (<4=C)”.
Take `O=C(N[C@H]1CC[C@@H](Oc2nc(N3CCOCC3)cc3ncccc23)CC1)c1ncccn1` [Compound 123, N-((1s,4s)-4-((7-Morpholino-1,6-naphthyridin-5-yl)oxy)cyclohexyl)pyrimidine-2-carboxamide]: the “Microsomal Stability (human) % rem. 60 min” value in data set [1] is “H (% remaining = 75-100%)”. Further, the microsomal CLint at 0.1 uM in data set [1] was under 116 µL/min/mg. Besides, the “CS-ER Range Score” value in data set [2] (100 mpk + 10 Gy, 0.5 h) is given as “C (<4=C)”; in data set [2] (100 mpk + 10 Gy, 4 h) it was “A (values >6=A)”; in data set [2] (100 mpk + 10 Gy, 8 h), “A (values >6=A)”; in data set [2] (100 mpk + 10 Gy, 24 h), “A (values >6=A)”. Moreover, the “TGD-ER Range Score” value is reported as “B (1-2.5=B)” in data set [3] (10 mpk + 10 Gy); “B (1-2.5=B)” in data set [3] (30 mpk + 10 Gy); “A (values >2.5=A)” in data set [3] (100 mpk + 10 Gy); “A (values >2.5=A)” in data set [3] ((30 mpk + 2 Gy) Q5D); “C (<1=C)” in data set [3] ((30 mpk) Q5D).
Take `O=C(N[C@H]1CC[C@@H](Oc2nc(N3CCOCC3)cc3ncccc23)CC1)c1cc[nH]c1` [Compound 140, N-((1s,4s)-4-((7-morpholino-1,6-naphthyridin-5-yl)oxy)cyclohexyl)-1H-pyrrole-3-carboxamide]: in data set [1], the “Microsomal Stability (human) % rem. 60 min” value is “F (% remaining = 25-50%)” and the microsomal CLint at 0.1 uM was over 116 µL/min/mg. Further, the “CS-ER Range Score” value in data set [2] (30 mpk + 8 Gy, 4 h) was “B (4-6=B)”. Moreover, in data set [3] (30 mpk BID + 10 Gy), the “TGD-ER Range Score” value was “C (<1=C)”.
Take `O=C(N[C@H]1CC[C@@H](Oc2nc(N3CCOCC3)cc3ncccc23)CC1)c1ncco1` [Compound 142, N-((1s,4s)-4-((7-morpholino-1,6-naphthyridin-5-yl)oxy)cyclohexyl)oxazole-2-carboxamide]: in data set [1], the “Microsomal Stability (human) % rem. 60 min” value is given as “F (% remaining = 25-50%)” and the microsomal CLint at 0.1 uM was over 116 µL/min/mg. Also, in data set [2] (30 mpk + 8 Gy, 2 h), the “CS-ER Range Score” value is “B (4-6=B)”. Further, the “CS-ER Range Score” value in data set [2] (30 mpk + 8 Gy, 4 h) was “B (4-6=B)”.
Regarding `O=C(N[C@H]1CC[C@@H](Oc2nc(N3CCOCC3)cc3ncccc23)CC1)c1c[nH]cn1` [Compound 144, N-((1s,4s)-4-((7-morpholino-1,6-naphthyridin-5-yl)oxy)cyclohexyl)-1H-imidazole-4-carboxamide], in data set [1], the “Microsomal Stability (human) % rem. 60 min” value is “G (% remaining = 50-75%)” and the microsomal CLint at 0.1 uM was under 116 µL/min/mg. Moreover, the “CS-ER Range Score” value in data set [2] (30 mpk + 8 Gy, 2 h) is on record as “C (<4=C)”. Moreover, the “CS-ER Range Score” value in data set [2] (30 mpk + 8 Gy, 4 h) was “B (4-6=B)”.
For `CS(=O)(=O)Nc1cnc2cc(N3CCOCC3)nc(O[C@H]3CC[C@@H](Nc4ncccn4)CC3)c2c1` [Compound 185, N-(7-morpholino-5-(((1s,4s)-4-(pyrimidin-2-ylamino)cyclohexyl)oxy)-1,6-naphthyridin-3-yl)methanesulfonamide], the “Microsomal Stability (human) % rem. 60 min” value in data set [1] is given as “F (% remaining = 25-50%)”. In data set [1], this compound came in with a microsomal CLint at 0.1 uM of over 116 µL/min/mg. In addition, in data set [2] (30 mpk + 8 Gy, 4 h), the “CS-ER Range Score” value was “B (4-6=B)”. Also, the “TGD-ER Range Score” value in data set [3] (10 mpk BID + 5 Gy), in data set [3] (30 mpk BID + 5 Gy) and in data set [3] (100 mpk BID + 5 Gy) was “B (1-2.5=B)” throughout.
For `COc1cnc(N[C@H]2CC[C@@H](Oc3nc(N4CCOCC4)cc4ncc(NS(C)(=O)=O)cc34)CC2)nc1` [Compound 203, N-(5-(((1s,4s)-4-((5-methoxypyrimidin-2-yl)amino)cyclohexyl)oxy)-7-morpholino-1,6-naphthyridin-3-yl)methanesulfonamide], the “CS-ER Range Score” value in data set [2] (30 mpk + 8 Gy, 2 h) is listed as “B (4-6=B)”; in data set [2] (30 mpk + 8 Gy, 4 h) it was “B (4-6=B)”.

For orientation: microsomal CLint means the rate of metabolic loss divided by the concentration. The low end stands for slow turnover, the high end for rapid turnover.
